One may read the pIC50 as the IC50 on a negative log10 scale, so that one unit is a factor of ten.

The structures appear in SMILES notation. pIC50: −log10 of the molar value.

Data on 32 compounds can be found in ChEMBL document CHEMBL1134111, “Nucleoside analogues as highly potent and selective inhibitors of herpes simplex virus thymidine kinase” (Bioorg Med Chem Lett, 2001).

The target in assay [1] is T1, Thymidine kinase (Human herpesvirus 1 (strain SC16) (HHV-1) (Human herpes simplex virus1), UniProt P06479).
T1 sequence (P06479 whole entry): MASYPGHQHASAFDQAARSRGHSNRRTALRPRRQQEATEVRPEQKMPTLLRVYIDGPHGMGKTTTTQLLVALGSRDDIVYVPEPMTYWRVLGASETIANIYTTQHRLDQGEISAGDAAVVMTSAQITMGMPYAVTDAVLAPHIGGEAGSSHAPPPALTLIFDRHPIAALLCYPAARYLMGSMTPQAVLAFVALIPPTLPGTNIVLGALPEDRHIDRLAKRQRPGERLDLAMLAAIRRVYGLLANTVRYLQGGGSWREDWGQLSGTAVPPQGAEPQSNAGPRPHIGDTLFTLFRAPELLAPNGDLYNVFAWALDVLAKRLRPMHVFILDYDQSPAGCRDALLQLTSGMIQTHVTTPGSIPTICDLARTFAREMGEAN
Kind of assay: Inhibitory activity against HSV-1 Thymidine Kinase (HSV-1 TK).

Assay [2] deals with T2, Thymidine kinase (Human herpesvirus 2, UniProt Q6L709).
T2 sequence (Q6L709 whole entry): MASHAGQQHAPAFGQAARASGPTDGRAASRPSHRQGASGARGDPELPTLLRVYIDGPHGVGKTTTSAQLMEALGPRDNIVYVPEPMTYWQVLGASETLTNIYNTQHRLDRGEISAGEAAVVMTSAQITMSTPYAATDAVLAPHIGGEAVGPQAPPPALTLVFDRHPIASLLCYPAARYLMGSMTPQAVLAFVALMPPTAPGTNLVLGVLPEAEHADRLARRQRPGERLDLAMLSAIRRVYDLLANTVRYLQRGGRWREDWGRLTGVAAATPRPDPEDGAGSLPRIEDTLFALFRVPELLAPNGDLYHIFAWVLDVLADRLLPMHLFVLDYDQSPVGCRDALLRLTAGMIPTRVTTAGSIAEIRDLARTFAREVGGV
Kind of assay: Inhibitory activity against HSV-2 Thymidine Kinase (HSV-2 TK).

In the case of `CCc1cn([C@H]2C[C@H](O)[C@@H](CNC(=O)C3c4ccccc4Oc4ccccc43)O2)c(=O)[nH]c1=O`, the pIC50 was 8.54 in assay [1] and 9.89 in assay [2].

`CCc1cn([C@H]2C[C@H](O)[C@@H](CNC(=O)C3c4ccccc4-c4ccccc43)O2)c(=O)[nH]c1=O`: the negative logarithm of the IC50 (pIC50) in assay [1] is 7.55; in assay [2] it was 8.28.

`CCc1cn([C@@H]2O[C@H](CNC(=O)C3c4ccccc4Oc4c(-c5ccccc5)cccc43)[C@@H](O)[C@@H]2F)c(=O)[nH]c1=O` (some centres undefined): the pIC50 was 9.18 in assay [1] and 9.85 in assay [2].

Take `CCc1cn([C@H]2C[C@H](O)[C@@H](CNC(=O)Cc3ccccc3Cl)O2)c(=O)[nH]c1=O`: the pIC50 in assay [1] was 7.00; in assay [2], 7.52.

As for `CCc1cn([C@H]2C[C@H](O)[C@@H](CNC(=O)Cc3c(Cl)cccc3Cl)O2)c(=O)[nH]c1=O`, the pIC50 in assay [1] was 9.00; in assay [2], 8.48.

As to `CCc1cn([C@H]2C[C@H](O)[C@@H](CNC(=O)C3c4ccccc4CCc4ccccc43)O2)c(=O)[nH]c1=O`, the pIC50 was 6.59 in assay [1] and 7.36 in assay [2].

For the compound `CCc1cn([C@H]2C[C@H](O)[C@@H](CNC(=O)Cc3ccccc3C(F)(F)F)O2)c(=O)[nH]c1=O`, the pIC50 in assay [1] was 6.70; in assay [2] it was 7.05.

Take `CCc1cn([C@H]2C[C@H](O)[C@@H](CNC(=O)Cc3ccccc3C)O2)c(=O)[nH]c1=O`: the pIC50 is 6.70 in assay [1] and 7.22 in assay [2].

Turning to `CCc1cn([C@@H]2O[C@H](CNC(=O)C3c4ccccc4Oc4c(OC)cccc43)[C@@H](O)[C@@H]2F)c(=O)[nH]c1=O` (some centres undefined), the values for the pIC50 in assay [1] and in assay [2] were 8.77 and 9.68, respectively.

As to `CCc1cn([C@H]2C[C@H](O)[C@@H](CNC(=O)Cc3ccccc3F)O2)c(=O)[nH]c1=O`, the values for the pIC50 in assay [1] and in assay [2] were 6.15 and 6.85, respectively.

Regarding `CCc1cn([C@H]2C[C@H](O)[C@@H](CNC(=O)C3c4ccccc4S(=O)(=O)c4ccccc43)O2)c(=O)[nH]c1=O`, the pIC50 in assay [1] is 9.02; in assay [2], 9.89.

Consider `CCc1cn([C@H]2C[C@H](O)[C@@H](CNC(=O)Cc3ccccc3)O2)c(=O)[nH]c1=O`, for which the pIC50 is 6.00 in assay [1] and 6.52 in assay [2].

In the case of `CCc1cn([C@@H]2O[C@H](CNC(=O)[C@H](C)Oc3cc(OC)c(Cl)cc3Cl)[C@@H](O)[C@@H]2F)c(=O)[nH]c1=O`, the pIC50 was 8.74 in assay [1] and 9.72 in assay [2].

Take `CCc1cn([C@@H]2O[C@H](CNC(=O)C3c4ccccc4Oc4c(Cl)cccc43)[C@@H](O)[C@@H]2F)c(=O)[nH]c1=O` (some centres undefined): the figures for the pIC50 in assay [1] and in assay [2] were 9.07 and 9.85, respectively.

Regarding `CCc1cn([C@H]2C[C@H](O)[C@@H](CNC(=O)C3c4ccccc4Sc4ccccc43)O2)c(=O)[nH]c1=O`, the pIC50 in assay [1] was 7.94; in assay [2], 8.85.

Consider `CCc1cn([C@@H]2O[C@H](CNC(=O)C3c4ccccc4Sc4ccccc43)[C@@H](O)[C@@H]2F)c(=O)[nH]c1=O`, for which the pIC50 in assay [1] is 8.07; in assay [2] it was 9.15.

With `CCc1cn([C@@H]2O[C@H](CNC(=O)C3c4ccccc4Oc4c(C)cccc43)[C@@H](O)[C@@H]2F)c(=O)[nH]c1=O` (some centres undefined), the pIC50 in assay [1] was 8.80; in assay [2], 9.72.

Consider `CCc1cn([C@H]2C[C@H](O)[C@@H](CNC(=O)Cc3ccccc3-c3ccccc3)O2)c(=O)[nH]c1=O`, for which the pIC50 in assay [1] is 6.62; in assay [2], 7.05.

Take `CCc1cn([C@H]2C[C@H](O)[C@@H](CNC(=O)C3c4ccccc4N(C)c4ccccc43)O2)c(=O)[nH]c1=O`: the results for the pIC50 in assay [1] and in assay [2] were 7.64 and 8.59, respectively.

Regarding `CCc1cn([C@H]2C[C@H](O)[C@@H](CNC(=O)Cc3c(C)cccc3C)O2)c(=O)[nH]c1=O`, the values for the pIC50 in assay [1] and in assay [2] were 7.40 and 8.08, respectively.

Turning to `CCc1cn([C@@H]2O[C@H](CNC(=O)C3c4ccccc4C(C(F)(F)F)(C(F)(F)F)c4ccccc43)[C@@H](O)[C@@H]2F)c(=O)[nH]c1=O`, the pIC50 is 9.72 in assay [1] and 9.96 in assay [2].

For `CCc1cn([C@H]2C[C@H](O)[C@@H](CNC(=O)Cc3ccccc3OC)O2)c(=O)[nH]c1=O`, the pIC50 is 6.52 in assay [1] and 7.15 in assay [2].

With `CCc1cn([C@H]2C[C@H](O)[C@@H](CNC(=O)c3c4ccccc4cc4ccccc34)O2)c(=O)[nH]c1=O`, the pIC50 in assay [1] was 5.78; in assay [2], 6.38.

Turning to `CCc1cn([C@@H]2O[C@H](CNC(=O)C3c4ccccc4Oc4c3cccc4C(F)(F)F)[C@@H](O)[C@@H]2F)c(=O)[nH]c1=O` (some centres undefined), the pIC50 is 9.00 in assay [1] and 9.85 in assay [2].

For `CCc1cn([C@@H]2O[C@H](CNC(=O)C3c4ccccc4S(=O)(=O)c4ccccc43)[C@@H](O)[C@@H]2F)c(=O)[nH]c1=O`, the pIC50 is 9.03 in assay [1] and 9.96 in assay [2].

As for `CCc1cn([C@@H]2O[C@H](CNC(=O)C3c4ccccc4S(=O)(=O)c4c(Cl)cccc43)[C@@H](O)[C@@H]2F)c(=O)[nH]c1=O` (some centres undefined), the pIC50 in assay [1] is 9.57; in assay [2], 10.05.

With `CCc1cn([C@H]2C[C@H](O)[C@@H](CNC(=O)C3c4ccccc4Cc4ccccc43)O2)c(=O)[nH]c1=O`, the figures for the pIC50 in assay [1] and in assay [2] were 8.15 and 8.92, respectively.

For the compound `CCc1cn([C@@H]2O[C@H](CNC(=O)C3c4ccccc4Sc4c(Cl)cccc43)[C@@H](O)[C@@H]2F)c(=O)[nH]c1=O` (some centres undefined), the values for the pIC50 in assay [1] and in assay [2] were 8.82 and 9.68, respectively.

Consider `CCc1cn([C@@H]2O[C@H](CNC(=O)C3c4cccc(Cl)c4Oc4c(Cl)cccc43)[C@@H](O)[C@@H]2F)c(=O)[nH]c1=O`, for which the pIC50 in assay [1] is 9.52; in assay [2], 10.00.

As to `CCc1cn([C@@H]2O[C@H](CNC(=O)C3c4ccccc4Oc4ccccc43)[C@@H](O)[C@@H]2F)c(=O)[nH]c1=O`, the pIC50 in assay [1] was 8.68; in assay [2], 9.96.

Turning to `CCc1cn([C@@H]2O[C@H](CNC(=O)C3c4cccc(C)c4Oc4c(C)cccc43)[C@@H](O)[C@@H]2F)c(=O)[nH]c1=O`, the pIC50 in assay [1] was 8.66; in assay [2] it was 9.37.

Take `CCc1cn([C@@H]2O[C@H](CNC(=O)C3c4ccccc4C(C)(C)c4ccccc43)[C@@H](O)[C@@H]2F)c(=O)[nH]c1=O`: the pIC50 in assay [1] was 8.82; in assay [2], 9.55.
